Test results: patent EP4745137A1 (Gluetacs Therapeutics (Shanghai) Co., Ltd., priority 2023, dated 2025)

Columns and labels:
GSPT1 = biological target: T1, GSPT1 (Homo sapiens, UniProt P15170+Q96SW2); assay: Western-blot assay of substrate protein degradation in hPBMCs, GSPT1; format: cell-based; details: 24 hours of compound treatment, compounds tested at 50 nM and 500 nM (concentration of the table not stated)
T1 construct: endogenous in cells; host or cells: hPBMCs (Milecell Biotechnologies)
T1 sequence (P15170 whole entry): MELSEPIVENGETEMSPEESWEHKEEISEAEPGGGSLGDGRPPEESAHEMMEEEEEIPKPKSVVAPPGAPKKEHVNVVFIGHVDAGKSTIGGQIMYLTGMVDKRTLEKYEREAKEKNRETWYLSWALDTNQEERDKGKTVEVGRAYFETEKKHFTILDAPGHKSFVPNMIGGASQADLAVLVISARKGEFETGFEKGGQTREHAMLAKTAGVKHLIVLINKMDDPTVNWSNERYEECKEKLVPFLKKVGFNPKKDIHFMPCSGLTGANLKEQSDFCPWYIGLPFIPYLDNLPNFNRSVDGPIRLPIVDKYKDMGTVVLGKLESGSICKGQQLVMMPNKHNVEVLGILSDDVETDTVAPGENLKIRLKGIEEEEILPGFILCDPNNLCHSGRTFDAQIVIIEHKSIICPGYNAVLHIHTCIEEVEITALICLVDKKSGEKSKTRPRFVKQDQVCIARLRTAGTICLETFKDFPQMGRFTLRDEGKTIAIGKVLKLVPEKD
T1 sequence (Q96SW2 whole entry): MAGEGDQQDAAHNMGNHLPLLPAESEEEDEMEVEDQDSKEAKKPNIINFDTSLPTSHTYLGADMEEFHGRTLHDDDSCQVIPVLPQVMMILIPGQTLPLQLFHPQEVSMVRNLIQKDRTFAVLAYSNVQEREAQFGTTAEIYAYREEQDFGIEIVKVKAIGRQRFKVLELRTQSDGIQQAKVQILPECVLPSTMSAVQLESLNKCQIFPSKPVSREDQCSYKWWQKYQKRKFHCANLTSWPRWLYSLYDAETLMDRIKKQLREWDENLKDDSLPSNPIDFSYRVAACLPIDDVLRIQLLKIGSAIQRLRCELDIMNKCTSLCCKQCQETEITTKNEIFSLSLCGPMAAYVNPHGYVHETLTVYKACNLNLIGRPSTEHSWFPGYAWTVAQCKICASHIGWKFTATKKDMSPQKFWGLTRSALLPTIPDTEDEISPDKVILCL
T1 sequence (Q16531 whole entry partner): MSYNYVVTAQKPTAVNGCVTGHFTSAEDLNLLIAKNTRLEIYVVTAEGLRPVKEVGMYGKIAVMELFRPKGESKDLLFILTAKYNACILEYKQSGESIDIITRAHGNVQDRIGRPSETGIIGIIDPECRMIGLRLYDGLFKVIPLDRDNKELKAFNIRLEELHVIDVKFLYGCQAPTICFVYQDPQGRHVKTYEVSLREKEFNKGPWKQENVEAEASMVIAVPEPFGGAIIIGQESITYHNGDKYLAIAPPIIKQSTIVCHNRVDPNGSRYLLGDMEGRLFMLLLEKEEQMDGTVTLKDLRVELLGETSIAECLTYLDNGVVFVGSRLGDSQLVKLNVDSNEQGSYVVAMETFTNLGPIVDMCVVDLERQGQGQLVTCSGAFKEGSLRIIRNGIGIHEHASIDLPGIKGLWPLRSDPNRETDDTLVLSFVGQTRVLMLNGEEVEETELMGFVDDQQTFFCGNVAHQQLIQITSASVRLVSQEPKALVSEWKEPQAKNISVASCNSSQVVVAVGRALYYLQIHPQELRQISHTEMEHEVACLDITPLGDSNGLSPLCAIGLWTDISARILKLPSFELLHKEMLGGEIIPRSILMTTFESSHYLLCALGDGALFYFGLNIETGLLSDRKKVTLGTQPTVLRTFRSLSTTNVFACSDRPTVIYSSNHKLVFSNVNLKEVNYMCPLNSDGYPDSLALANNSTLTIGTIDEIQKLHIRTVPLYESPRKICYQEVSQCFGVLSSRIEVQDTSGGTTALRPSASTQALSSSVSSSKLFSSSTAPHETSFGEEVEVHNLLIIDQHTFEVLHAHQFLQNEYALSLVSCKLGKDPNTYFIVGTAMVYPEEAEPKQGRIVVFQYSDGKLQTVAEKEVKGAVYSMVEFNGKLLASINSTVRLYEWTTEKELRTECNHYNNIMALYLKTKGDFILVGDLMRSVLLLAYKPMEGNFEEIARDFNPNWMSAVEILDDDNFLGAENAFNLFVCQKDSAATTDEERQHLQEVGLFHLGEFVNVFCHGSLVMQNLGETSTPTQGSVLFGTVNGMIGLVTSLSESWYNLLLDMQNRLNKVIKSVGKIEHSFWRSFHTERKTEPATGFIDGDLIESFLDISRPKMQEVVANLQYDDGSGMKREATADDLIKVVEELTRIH

CK1α = biological target: T2, CK1α (Homo sapiens, UniProt P48729+Q96SW2); assay: Western-blot assay of substrate protein degradation in hPBMCs, CK1α; format: cell-based; details: 24 hours of compound treatment, compounds tested at 50 nM and 500 nM (concentration of the table not stated)
T2 construct: endogenous in cells; host or cells: hPBMCs (Milecell Biotechnologies)

[1] = test system: Human acute T lymphocytic leukemia cells (Molt-4); assay: Tumor cell proliferation inhibition (CellTiter-Meiluncell Luminescent Cell Viability Assay), Molt-4; details: MOLT-4, 96 h, read-out: inhibitory activity (IC50, nM) against tumor cells proliferation, Molt 4
IKZF2 = biological target: T3, IKZF2 (Homo sapiens, UniProt Q96SW2+Q9UKS7); assay: Western-blot assay of substrate protein degradation in hPBMCs, IKZF2; format: cell-based; details: 24 hours of compound treatment, compounds tested at 50 nM and 500 nM (concentration of the table not stated)
T3 construct: endogenous in cells; host or cells: hPBMCs (Milecell Biotechnologies)
T3 sequence (Q9UKS7 whole entry): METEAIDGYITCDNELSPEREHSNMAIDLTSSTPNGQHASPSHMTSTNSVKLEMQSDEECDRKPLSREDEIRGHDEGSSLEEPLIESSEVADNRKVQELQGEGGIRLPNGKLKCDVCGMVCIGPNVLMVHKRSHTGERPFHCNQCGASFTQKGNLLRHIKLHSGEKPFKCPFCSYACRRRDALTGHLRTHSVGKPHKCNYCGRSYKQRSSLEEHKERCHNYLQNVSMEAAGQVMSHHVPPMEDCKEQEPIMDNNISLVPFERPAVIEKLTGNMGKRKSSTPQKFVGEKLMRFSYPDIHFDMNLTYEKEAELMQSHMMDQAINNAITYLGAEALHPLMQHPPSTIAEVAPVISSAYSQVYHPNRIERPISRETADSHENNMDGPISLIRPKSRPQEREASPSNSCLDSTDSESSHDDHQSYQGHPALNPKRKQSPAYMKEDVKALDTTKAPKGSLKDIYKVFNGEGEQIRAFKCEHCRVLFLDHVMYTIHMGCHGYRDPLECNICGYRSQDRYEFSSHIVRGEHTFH
T3 sequence (Q96SW2 whole entry): as the sequence (Q96SW2 whole entry) above
T3 sequence (Q16531 whole entry partner): as the sequence (Q16531 whole entry partner) above

IKZF3 = biological target: T4, IKZF3 (Homo sapiens, UniProt Q96SW2+Q9UKT9); assay: Western-blot assay of substrate protein degradation in hPBMCs, IKZF3; format: cell-based; details: 24 hours of compound treatment, compounds tested at 50 nM and 500 nM (concentration of the table not stated)
T4 construct: endogenous in cells; host or cells: hPBMCs (Milecell Biotechnologies)
T4 sequence (Q9UKT9 whole entry): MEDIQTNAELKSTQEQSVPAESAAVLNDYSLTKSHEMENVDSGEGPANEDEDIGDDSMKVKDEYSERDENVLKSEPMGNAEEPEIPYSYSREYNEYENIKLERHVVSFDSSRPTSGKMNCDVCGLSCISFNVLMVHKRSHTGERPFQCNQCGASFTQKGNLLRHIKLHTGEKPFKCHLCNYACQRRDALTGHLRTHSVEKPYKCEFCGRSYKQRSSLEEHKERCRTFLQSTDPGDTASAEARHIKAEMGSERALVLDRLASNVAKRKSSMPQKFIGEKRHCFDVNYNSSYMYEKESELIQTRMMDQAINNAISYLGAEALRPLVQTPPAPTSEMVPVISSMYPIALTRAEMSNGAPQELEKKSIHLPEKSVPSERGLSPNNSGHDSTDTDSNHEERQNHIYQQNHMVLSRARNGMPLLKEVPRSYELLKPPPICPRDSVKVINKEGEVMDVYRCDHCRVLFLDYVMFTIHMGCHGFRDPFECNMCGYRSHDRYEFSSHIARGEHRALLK
T4 sequence (Q96SW2 whole entry): as the sequence (Q96SW2 whole entry) above
T4 sequence (Q16531 whole entry partner): as the sequence (Q16531 whole entry partner) above

WEE1 = biological target: T5, WEE1 (Homo sapiens, UniProt P30291+Q96SW2); assay: Western-blot assay of substrate protein degradation in hPBMCs, WEE1; format: cell-based; details: 24 hours of compound treatment, compounds tested at 50 nM and 500 nM (concentration of the table not stated)
T5 construct: endogenous in cells; host or cells: hPBMCs (Milecell Biotechnologies)
T5 sequence (P30291 whole entry): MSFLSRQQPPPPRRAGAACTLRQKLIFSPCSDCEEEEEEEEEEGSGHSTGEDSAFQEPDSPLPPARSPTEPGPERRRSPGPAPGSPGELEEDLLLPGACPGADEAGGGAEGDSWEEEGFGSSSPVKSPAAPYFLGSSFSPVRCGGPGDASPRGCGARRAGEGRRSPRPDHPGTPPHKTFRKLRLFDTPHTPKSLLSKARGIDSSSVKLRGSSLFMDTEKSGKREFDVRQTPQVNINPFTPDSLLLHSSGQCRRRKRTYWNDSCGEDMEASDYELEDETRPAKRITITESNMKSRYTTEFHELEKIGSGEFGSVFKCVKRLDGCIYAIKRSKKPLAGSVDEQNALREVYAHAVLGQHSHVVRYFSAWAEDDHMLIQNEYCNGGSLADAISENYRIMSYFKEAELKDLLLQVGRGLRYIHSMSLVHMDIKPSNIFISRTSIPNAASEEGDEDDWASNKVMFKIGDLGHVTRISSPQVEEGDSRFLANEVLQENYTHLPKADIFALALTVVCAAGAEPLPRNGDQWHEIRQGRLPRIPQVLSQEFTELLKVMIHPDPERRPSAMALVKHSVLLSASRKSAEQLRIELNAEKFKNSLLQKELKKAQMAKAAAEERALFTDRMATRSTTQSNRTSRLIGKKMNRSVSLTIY
T5 sequence (Q96SW2 whole entry): as the sequence (Q96SW2 whole entry) above
T5 sequence (Q16531 whole entry partner): as the sequence (Q16531 whole entry partner) above

IKZF1 = biological target: T6, IKZF1 (Homo sapiens, UniProt Q13422+Q96SW2); assay: Western-blot assay of substrate protein degradation in hPBMCs, IKZF1; format: cell-based; details: 24 hours of compound treatment, compounds tested at 50 nM and 500 nM (concentration of the table not stated)
T6 construct: endogenous in cells; host or cells: hPBMCs (Milecell Biotechnologies)
T6 sequence (Q13422 whole entry): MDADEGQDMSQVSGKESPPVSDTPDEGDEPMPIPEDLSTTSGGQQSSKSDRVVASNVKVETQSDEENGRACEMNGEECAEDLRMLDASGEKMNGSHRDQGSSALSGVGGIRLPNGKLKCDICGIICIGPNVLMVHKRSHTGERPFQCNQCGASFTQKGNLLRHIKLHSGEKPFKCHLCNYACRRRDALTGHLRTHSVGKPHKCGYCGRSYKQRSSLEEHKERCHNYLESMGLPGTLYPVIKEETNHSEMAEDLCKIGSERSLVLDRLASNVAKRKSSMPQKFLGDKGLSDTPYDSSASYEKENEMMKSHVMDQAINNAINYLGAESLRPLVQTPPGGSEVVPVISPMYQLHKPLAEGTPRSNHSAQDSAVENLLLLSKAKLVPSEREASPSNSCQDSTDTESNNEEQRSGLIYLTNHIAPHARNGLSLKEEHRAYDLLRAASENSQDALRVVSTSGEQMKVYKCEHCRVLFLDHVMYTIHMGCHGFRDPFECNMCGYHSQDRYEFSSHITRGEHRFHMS
T6 sequence (Q96SW2 whole entry): as the sequence (Q96SW2 whole entry) above
T6 sequence (Q16531 whole entry partner): as the sequence (Q16531 whole entry partner) above

[2] = biological target: T7, human Cereblon WT GST-tagged protein (Homo sapiens, UniProt Q96SW2); assay: CRBN-binding affinity by HTRF (CEREBLON BINDING kit); details: HTRF inhibitory activity, CEREBLON BINDING kit; read-out: HTRF IC50
T7 construct: purchased CISBIO 64BDCRBNPEH
T7 sequence (Q96SW2 whole entry): as the sequence (Q96SW2 whole entry) above

| IC50 [1] | IC50 [2] | SMILES | GSPT1 substrate protein remaining % (GSPT1) | CK1a substrate protein remaining % (CK1α) | IKZF2 substrate protein remaining % (IKZF2) | IKZF3 substrate protein remaining % (IKZF3) | Weel substrate protein remaining % (WEE1) | IKZF 1 substrate protein remaining % (IKZF1) |
| --- | --- | --- | --- | --- | --- | --- | --- | --- |
| 500 to 1000 nM | < 500 nM | O=C1CCC(N2Cc3cc(CN4CC(c5ccnc6cc(F)ccc56)C4)ccc3C2=O)C(=O)N1 (stereo not shown) [GT-04651, 3-(5-((3-(7-fluoroquinolin-4-yl)azetidin-1-yl)methyl)-1-oxoisoindolin-2-yl)piperidine-2,6-dione] | A (0% ≤ substrate protein remaining % ≤ 80%) | A (0% ≤ substrate protein remaining % ≤ 80%) | A (0% ≤ substrate protein remaining % ≤ 80%) | A (0% ≤ substrate protein remaining % ≤ 80%) | B (80%< substrate protein remaining %≤ 100%) | A (0% ≤ substrate protein remaining % ≤ 80%) |
| 10 to 50 nM | 500 to 1000 nM | Cc1nc(C2CCN(Cc3ccc4c(c3)CN(C3CCC(=O)NC3=O)C4=O)CC2)c2ccsc2n1 (stereo not shown) [GT-04726, 3-(5-((4-(2-methylthieno[2,3-d]pyrimidin-4-yl)piperidin-1-yl)methyl)-1-oxoisoindolin-2-yl)piperidine-2,6-dione] | A (0% ≤ substrate protein remaining % ≤ 80%) | A (0% ≤ substrate protein remaining % ≤ 80%) | A (0% ≤ substrate protein remaining % ≤ 80%) | A (0% ≤ substrate protein remaining % ≤ 80%) | A (0% ≤ substrate protein remaining % ≤ 80%) | A (0% ≤ substrate protein remaining % ≤ 80%) |
| 100 to 500 nM | 500 to 1000 nM | Cc1csc2ncnc(C3=CCN(Cc4ccc5c(c4)CN(C4CCC(=O)NC4=O)C5=O)CC3)c12 (stereo not shown) [GT-04703, 3-(5-((4-(5-methylthieno[2,3-d]pyrimidin-4-yl)-3,6-dihydropyridin-1(2H)-yl)methyl)-1-oxoisoindolin-2-yl)piperidine-2,6-dione] | A (0% ≤ substrate protein remaining % ≤ 80%) | A (0% ≤ substrate protein remaining % ≤ 80%) | A (0% ≤ substrate protein remaining % ≤ 80%) | A (0% ≤ substrate protein remaining % ≤ 80%) | B (80%< substrate protein remaining %≤ 100%) | A (0% ≤ substrate protein remaining % ≤ 80%) |

Second part, the compound before the results:

| SMILES | IC50 [1] | IC50 [2] | GSPT1 substrate protein remaining % (GSPT1) | CK1a substrate protein remaining % (CK1α) | IKZF2 substrate protein remaining % (IKZF2) | IKZF3 substrate protein remaining % (IKZF3) | Weel substrate protein remaining % (WEE1) | IKZF 1 substrate protein remaining % (IKZF1) |
| --- | --- | --- | --- | --- | --- | --- | --- | --- |
| O=C1CCC(N2Cc3cc(CN4CCC(c5cccc6c(F)cccc56)CC4)ccc3C2=O)C(=O)N1 (stereo not shown) [GT-04664, 3-(5-((4-(5-fluoronaphthalen-1-yl)piperidin-1-yl)methyl)-1-oxoisoindolin-2-yl)piperidine-2,6-dione] | 100 to 500 nM | 500 to 1000 nM | A (0% ≤ substrate protein remaining % ≤ 80%) | A (0% ≤ substrate protein remaining % ≤ 80%) | A (0% ≤ substrate protein remaining % ≤ 80%) | A (0% ≤ substrate protein remaining % ≤ 80%) | A (0% ≤ substrate protein remaining % ≤ 80%) | A (0% ≤ substrate protein remaining % ≤ 80%) |
| O=C1CCC(N2Cc3cc(CN4CCC(c5ccco5)CC4)ccc3C2=O)C(=O)N1 (stereo not shown) [GT-04618, 3-(5-((4-(furan-2-yl)piperidin-1-yl)methyl)-1-oxoisoindolin-2-yl)piperidine-2,6-dione] | 50 to 100 nM | 500 to 1000 nM | A (0% ≤ substrate protein remaining % ≤ 80%) | B (80%< substrate protein remaining %≤ 100%) | A (0% ≤ substrate protein remaining % ≤ 80%) | A (0% ≤ substrate protein remaining % ≤ 80%) | A (0% ≤ substrate protein remaining % ≤ 80%) | A (0% ≤ substrate protein remaining % ≤ 80%) |
